According to ChEMBL document CHEMBL3352614, “MoGAT-2 Inhibitors May Provide Effective Treatment for Hypertriglyceridemia” (ACS Med Chem Lett, 2014):

Target: 2-acylglycerol O-acyltransferase 2 (Homo sapiens, UniProt Q3SYC2)
Assay: Inhibition of human MoGAT-2 expressed in human Caco2 cells assessed as inhibition of 2-O-Hexadecylglycerol […] pretreated for 30 mins by LC-MS analysis
Type: cell-based, Caco-2

2-acylglycerol O-acyltransferase 2, sequence (Q3SYC2 whole entry): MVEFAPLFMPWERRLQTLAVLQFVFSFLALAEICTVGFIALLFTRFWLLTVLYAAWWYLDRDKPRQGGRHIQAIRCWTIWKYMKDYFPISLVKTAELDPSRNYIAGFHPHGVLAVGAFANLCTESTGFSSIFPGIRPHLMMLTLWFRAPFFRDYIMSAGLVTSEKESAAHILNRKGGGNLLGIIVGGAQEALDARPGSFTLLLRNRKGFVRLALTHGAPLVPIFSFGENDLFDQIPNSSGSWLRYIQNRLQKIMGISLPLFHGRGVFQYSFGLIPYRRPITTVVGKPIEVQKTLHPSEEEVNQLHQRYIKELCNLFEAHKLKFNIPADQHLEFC

IC50: 0.294 µM
Compound: C[C@@H](NS(C)(=O)=O)c1ccc(CNC[C@@H]2CO[C@@H](c3ccccc3)CO2)cc1
